Laboratory results as given in patent EP0007672A1, “Isocyanoalkenes, process and useful intermediates for their preparation, pharmaceutical and fungicidal preparations containing those isocyanoalkenes and the use of the fungicidal preparations in agriculture” (GIST-BROCADES N.V., priority 1978, dated 1980).
≈ marks a conversion by molar mass, not a printed value. Like-named read-outs stand apart in the source and are kept apart here.

Tests used:
Assay in all cases: MIC (Minimum Inhibitory Concentration)
Assay type in all cases: cell-based
[1] = tested on: Trichophyton quickeaneum; settings: read-out: MIC values
[2] = tested on: Trichophyton mentagrophytus
[3] = tested on: Trichophyton rubrum
[4] = tested on: Proteus morganii; settings: Morganella morganii; Proteus morganii 2241
[5] = tested on: Trichophyton schoenleinii; settings: read-out: MIC values
[6] = tested on: Bacillus subtilis; settings: ATCC6633; Bacillus subtilis ATCC 6633
[7] = tested on: Pasteurella multocida; settings: read-out: MIC values
[8] = tested on: Trichophyton soudanese joyeux; settings: read-out: MIC values
[9] = tested on: Trichophyton tonsurans; settings: read-out: MIC values
[10] = tested on: Trichophyton verrucosum
[11] = tested on: Candida albicans
[12] = tested on: Diplococcus pneumoniae; settings: Streptococcus pneumoniae; Diplococcus pneumoniae A 2783
[13] = tested on: Trichophyton equinum
[14] = tested on: Staphylococcus aureus
[15] = tested on: Streptococcus haemolyticus; settings: read-out: MIC values
[16] = tested on: Trichophyton violoceum; settings: read-out: MIC values
[17] = tested on: Fusarium solani; settings: Fusarium solani, read-out: MIC values
[18] = tested on: Fusarium (bulb); settings: Fusarium (bulb) A 3252
[19] = tested on: Rhizoctonia solani; settings: Rhizoctonia solani, read-out: MIC values
[20] = tested on: Fusarium (tulip); settings: Fusarium (tulip) A 3253

Question: What does the source list for `[C-]#[N+]C(=CC(C)(C)C)S(=O)(=O)c1ccc(C)cc1` [Example 4, 3,3-dimethyl-1-isocyano-1-(4-toluenesulphonyl)-1-butene]?
Answer: MIC ([1]; Trichophyton quickeaneum A 2040): 3 µg/mL (≈ 11.4 µM); MIC ([2]; Trichophyton mentagrophytus 367-68, read-out: MIC values): 0.2 µg/mL (≈ 0.759 µM); MIC ([2]; Trichophyton mentagrophytus 421-67, read-out: MIC values): 0.8 µg/mL (≈ 3.04 µM); MIC ([2]; Trichophyton mentagrophytus A 3252, read-out: MIC values): 1.5 µg/mL (≈ 5.7 µM); MIC ([2]; Trichophyton mentagrophytus R 177, read-out: MIC values): 6 µg/mL (≈ 22.8 µM); MIC ([2]; Trichophyton mentagrophytus R 178, read-out: MIC values): > 100 µg/mL; MIC ([2]; Trichophyton mentagrophytus RRL 305, read-out: MIC values): 3 µg/mL (≈ 11.4 µM); MIC ([3]; Trichophyton rubrum 218-65, read-out: MIC values): 0.1 µg/mL (≈ 0.38 µM); MIC ([3]; Trichophyton rubrum 494-62, read-out: MIC values): 0.8 µg/mL (≈ 3.04 µM); MIC ([3]; Trichophyton rubrum A 810, read-out: MIC values): 6 µg/mL (≈ 22.8 µM); MIC [4]: 100 µg/mL (≈ 380 µM); MIC ([5]; Trichophyton schoenleinii 435-63): < 0.05 µg/mL; MIC [6]: 12.5 µg/mL (≈ 47.5 µM); MIC ([7]; Pasteurella multocida A 723): 3 µg/mL (≈ 11.4 µM); MIC ([8]; Trichophyton soudanese joyeux 440-63): 3 µg/mL (≈ 11.4 µM); MIC ([9]; Trichophyton tonsurans 561-50): 1.5 µg/mL (≈ 5.7 µM); MIC ([10]; Trichophyton verrucosum 134-66, read-out: MIC values): < 0.05 µg/mL; MIC ([10]; Trichophyton verrucosum N 3, read-out: MIC values): 0.1 µg/mL (≈ 0.38 µM); MIC ([11]; Candida albicans A 7, read-out: MIC values): 6 µg/mL (≈ 22.8 µM); MIC ([11]; Candida albicans A 3140, read-out: MIC values): 12.5 µg/mL (≈ 47.5 µM); MIC ([11]; Candida albicans A 3141, read-out: MIC values): > 100 µg/mL; MIC ([11]; Candida albicans A 3142, read-out: MIC values): 50 µg/mL (≈ 190 µM); MIC ([11]; Candida albicans A 3143, read-out: MIC values): 6 µg/mL (≈ 22.8 µM); MIC ([11]; Candida albicans A 3144, read-out: MIC values): 50 µg/mL (≈ 190 µM); MIC ([11]; Candida albicans A 3145, read-out: MIC values): > 100 µg/mL; MIC ([11]; Candida albicans A 3165, read-out: MIC values): 50 µg/mL (≈ 190 µM); MIC ([11]; Candida albicans A 3166, read-out: MIC values): 12.5 µg/mL (≈ 47.5 µM); MIC ([11]; Candida albicans A 3167, read-out: MIC values): 50 µg/mL (≈ 190 µM); MIC ([11]; Candida albicans A 3168, read-out: MIC values): 50 µg/mL (≈ 190 µM); MIC ([11]; Candida albicans A 3169, read-out: MIC values): 100 µg/mL (≈ 380 µM); MIC ([11]; Candida albicans A 3171, read-out: MIC values): 50 µg/mL (≈ 190 µM); MIC ([11]; Candida albicans A 3184, read-out: MIC values): 100 µg/mL (≈ 380 µM); MIC ([11]; Candida albicans A 3190, read-out: MIC values): 50 µg/mL (≈ 190 µM); MIC ([11]; Candida albicans A 3191, read-out: MIC values): 50 µg/mL (≈ 190 µM); MIC ([11]; Candida albicans A 3192, read-out: MIC values): 25 µg/mL (≈ 94.9 µM); MIC ([11]; Candida albicans A 3194, read-out: MIC values): > 100 µg/mL; MIC ([11]; Candida albicans A 3196, read-out: MIC values): 25 µg/mL (≈ 94.9 µM); MIC [12]: 6 µg/mL (≈ 22.8 µM); MIC ([13]; Trichophyton equinum 182-76, read-out: MIC values): 3 µg/mL (≈ 11.4 µM); MIC ([13]; Trichophyton equinum 441-51, read-out: MIC values): < 0.05 µg/mL; MIC ([13]; Trichophyton equinum 856-71, read-out: MIC values): 0.2 µg/mL (≈ 0.759 µM); MIC ([14]; Staphylococcus aureus A 321): 12.5 µg/mL (≈ 47.5 µM); MIC ([14]; Staphylococcus aureus A 355): 6 µg/mL (≈ 22.8 µM); MIC ([14]; Staphylococcus aureus A 2000): 6 µg/mL (≈ 22.8 µM); MIC ([15]; Streptococcus haemolyticus A 1088): 1.5 µg/mL (≈ 5.7 µM); MIC ([16]; Trichophyton violoceum 442-62): 0.05 µg/mL (≈ 0.19 µM)

Question: How did the MIC ([1]; Trichophyton) turn out when `[C-]#[N+]C(=C1CCCC1)S(=O)(=O)c1ccc(C)cc1` [Example 9, a-cyclopentylidene-a-(4-toluenesulphonyl)-methylisocyanide] was run?
Answer: 1.5 µg/mL (≈ 5.74 µM)

Question: And the MIC ([2]; read-out: MIC values, Trichophyton mentagrophytus 367-68)?
Answer: 3 µg/mL (≈ 11.5 µM)

Question: And the MIC ([2]; read-out: MIC values, Trichophyton mentagrophytus 421-67)?
Answer: 6 µg/mL (≈ 23 µM)

Question: What about the MIC ([2]; read-out: MIC values, Trichophyton mentagrophytus A 3252) of the same molecule?
Answer: 1.5 µg/mL (≈ 5.74 µM)

Question: What about the MIC ([2]; read-out: MIC values, Trichophyton mentagrophytus R 177) of the same molecule?
Answer: 3 µg/mL (≈ 11.5 µM)

Question: What about the MIC ([2]; read-out: MIC values, Trichophyton mentagrophytus R 178) of the same molecule?
Answer: 12.5 µg/mL (≈ 47.8 µM)

Question: And the MIC ([2]; read-out: MIC values, Trichophyton mentagrophytus RRL 305)?
Answer: 0.8 µg/mL (≈ 3.06 µM)

Question: And the MIC ([3]; read-out: MIC values, Trichophyton rubrum 218-65)?
Answer: 0.8 µg/mL (≈ 3.06 µM)

Question: What about the MIC ([3]; read-out: MIC values, Trichophyton rubrum 494-62) of the same molecule?
Answer: 1.5 µg/mL (≈ 5.74 µM)

Question: What about the MIC ([3]; read-out: MIC values, Trichophyton rubrum A 810) of the same molecule?
Answer: 0.1 µg/mL (≈ 0.383 µM)

Question: And the MIC ([5]; Trichophyton schoenleinii)?
Answer: 0.4 µg/mL (≈ 1.53 µM)

Question: What about the MIC [17] of the same molecule?
Answer: 12.5 µg/mL (≈ 47.8 µM)

Question: And the MIC ([7]; Pasteurella multocida)?
Answer: 3 µg/mL (≈ 11.5 µM)

Question: And the MIC ([8]; Trichophyton)?
Answer: 6 µg/mL (≈ 23 µM)

Question: And the MIC ([9]; Trichophyton tonsurans)?
Answer: 6 µg/mL (≈ 23 µM)

Question: And the MIC [18]?
Answer: 25 µg/mL (≈ 95.7 µM)

Question: What about the MIC ([10]; read-out: MIC values, Trichophyton verrucosum 134-66) of the same molecule?
Answer: < 0.05 µg/mL

Question: What about the MIC ([10]; read-out: MIC values, Trichophyton verrucosum A 2922) of the same molecule?
Answer: 0.4 µg/mL (≈ 1.53 µM)

Question: And the MIC ([11]; read-out: MIC values, Candida albicans A 7)?
Answer: 0.8 µg/mL (≈ 3.06 µM)

Question: And the MIC ([11]; read-out: MIC values, Candida albicans A 3140)?
Answer: 1.5 µg/mL (≈ 5.74 µM)

Question: What about the MIC ([11]; read-out: MIC values, Candida albicans A 3141) of the same molecule?
Answer: 3 µg/mL (≈ 11.5 µM)

Question: What about the MIC ([11]; read-out: MIC values, Candida albicans A 3142) of the same molecule?
Answer: 1.5 µg/mL (≈ 5.74 µM)

Question: And the MIC ([11]; read-out: MIC values, Candida albicans A 3143)?
Answer: 0.8 µg/mL (≈ 3.06 µM)

Question: What about the MIC ([11]; read-out: MIC values, Candida albicans A 3144) of the same molecule?
Answer: 1.5 µg/mL (≈ 5.74 µM)

Question: What about the MIC ([11]; read-out: MIC values, Candida albicans A 3145) of the same molecule?
Answer: 1.5 µg/mL (≈ 5.74 µM)

Question: And the MIC ([11]; read-out: MIC values, Candida albicans A 3165)?
Answer: 3 µg/mL (≈ 11.5 µM)

Question: What about the MIC ([11]; read-out: MIC values, Candida albicans A 3166) of the same molecule?
Answer: 6 µg/mL (≈ 23 µM)

Question: What about the MIC ([11]; read-out: MIC values, Candida albicans A 3167) of the same molecule?
Answer: 3 µg/mL (≈ 11.5 µM)

Question: And the MIC ([11]; read-out: MIC values, Candida albicans A 3168)?
Answer: 6 µg/mL (≈ 23 µM)

Question: And the MIC ([11]; read-out: MIC values, Candida albicans A 3169)?
Answer: 3 µg/mL (≈ 11.5 µM)

Question: What about the MIC ([11]; read-out: MIC values, Candida albicans A 3171) of the same molecule?
Answer: 3 µg/mL (≈ 11.5 µM)

Question: What about the MIC ([11]; read-out: MIC values, Candida albicans A 3184) of the same molecule?
Answer: 1.5 µg/mL (≈ 5.74 µM)

Question: And the MIC ([11]; read-out: MIC values, Candida albicans A 3190)?
Answer: 1.5 µg/mL (≈ 5.74 µM)

Question: What about the MIC ([11]; read-out: MIC values, Candida albicans A 3191) of the same molecule?
Answer: 0.8 µg/mL (≈ 3.06 µM)

Question: And the MIC ([11]; read-out: MIC values, Candida albicans A 3192)?
Answer: 0.8 µg/mL (≈ 3.06 µM)

Question: And the MIC ([11]; read-out: MIC values, Candida albicans A 3194)?
Answer: 0.8 µg/mL (≈ 3.06 µM)

Question: What about the MIC ([11]; read-out: MIC values, Candida albicans A 3196) of the same molecule?
Answer: 3 µg/mL (≈ 11.5 µM)

Question: And the MIC [19]?
Answer: 1.5 µg/mL (≈ 5.74 µM)

Question: What about the MIC ([13]; read-out: MIC values, Trichophyton equinum 182-76) of the same molecule?
Answer: 3 µg/mL (≈ 11.5 µM)

Question: What about the MIC ([13]; read-out: MIC values, Trichophyton equinum 441-51) of the same molecule?
Answer: 0.1 µg/mL (≈ 0.383 µM)

Question: And the MIC ([13]; read-out: MIC values, Trichophyton equinum 856-71)?
Answer: < 0.05 µg/mL

Question: What about the MIC [20] of the same molecule?
Answer: 12.5 µg/mL (≈ 47.8 µM)

Question: What about the MIC ([15]; Streptococcus) of the same molecule?
Answer: 25 µg/mL (≈ 95.7 µM)

Question: And the MIC ([16]; Trichophyton)?
Answer: 0.4 µg/mL (≈ 1.53 µM)
